Data taken from publication PMC11096083 (Cancer research, 2024).

Columns and labels:
HSD3B7 [1] = target: T1, HSD3B7 (Homo sapiens, UniProt Q9H2F3); assay: recombinant HSD3B7 activity by NAD+ reduction to NADH; type: biochemical
T1 sequence (Q9H2F3 1-369): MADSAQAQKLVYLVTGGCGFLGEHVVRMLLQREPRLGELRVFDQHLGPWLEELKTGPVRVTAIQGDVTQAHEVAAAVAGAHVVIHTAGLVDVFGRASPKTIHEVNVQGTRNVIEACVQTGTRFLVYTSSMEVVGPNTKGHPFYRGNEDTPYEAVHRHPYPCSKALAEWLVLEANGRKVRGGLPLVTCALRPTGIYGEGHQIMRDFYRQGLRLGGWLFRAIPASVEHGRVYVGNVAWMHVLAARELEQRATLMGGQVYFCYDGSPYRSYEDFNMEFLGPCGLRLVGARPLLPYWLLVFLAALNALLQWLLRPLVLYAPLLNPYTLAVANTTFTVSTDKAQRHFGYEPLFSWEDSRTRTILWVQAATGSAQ

HSD3B7 [2] = target: T1, HSD3B7; assay: recombinant HSD3B7 NAD; type: biochemical

Compound	recombinant HSD3B7 activity by NAD+ reduction to NADH (fluorescence) (HSD3B7 [1])	IC50 (HSD3B7 [2])
NC(=O)c1ccc[n+]([C@@H]2O[C@H](COP(=O)([O-])OP(=O)(O)OC[C@H]3O[C@@H](n4cnc5c(N)ncnc54)[C@H](O)[C@@H]3O)[C@@H](O)[C@H]2O)c1 [NAD+]	recombinant human HSD3B7 protein, whose enzymatic activity was assessed by monitoring fluorescence induced by NAD^+ reduction to NADH	–
CC1=C(O)C(=O)C=C2C1=CC=C1[C@@]2(C)CC[C@@]2(C)[C@@H]3C[C@](C)(C(=O)O)CC[C@]3(C)CC[C@]12C [celastrol]	–	low micromolar
COc1ccc(-c2cc(=O)c3c(O)cc(O)c(-c4cc(-c5cc(=O)c6c(O)cc(O)cc6o5)ccc4OC)c3o2)cc1 [isoginkgetin]	–	low micromolar
